The target in one series is T1, DDX3X helicase activity (Homo sapiens, UniProt O00571).
T1 construct: Recombinant his-tagged human full length DDX3X; His tag; made in house; host or cells: ShuffleT7 E. coli
The series is described as follows: FRET-based DDX3X helicase assay. It counts as biochemical. The following applies: for IC50: FRET helicase assay, recombinant DDX3X, read-out: IC50 ± SD, DDX3X anti-enzymatic (helicase) activity. The method, then:
Recombinant his-tagged human full length DDX3X cloned the E. coli expression vector pET-30a(+). ShuffleT7 E. coli cells were transformed with the plasmid and grown at 37 °C up to OD600 = 0.7. DDX3X expression was induced with 0.5 mM IPTG at 15 °C O/N. Cells were harvested by centrifugation, lysed, and the crude extract was centrifuged at 100,000 g for 60 min at 4 °C in a Beckman centrifuge before being loaded onto a FPLC Ni-NTA column (GE Healthcare, Chicago, IL, USA). The column was equilibrated in Buffer A (50 mM Tris-HCl pH 8.0, 250 mM NaCl, 25 mM Imidazole and 20% glycerol). After extensive washing in Buffer A, the column was eluted with a linear gradient in Buffer A from 25 to 250 mM Imidazole. Proteins in the eluted fractions were visualized on SDS-PAGE and tested for the presence of DDX3X by Western blot with anti-DDX3X A300-475A (Bethyl Laboratories, Montgomery, TX, USA) at 1:4000 dilution in 5% milk. Fractions containing the purest DDX3X protein were pooled and stored at −80 °C.
The dsRNA substrate for the helicase assay was prepared by hybridizing two ss RNA oligonucleotides with the following sequences: • Fluo-FAM 5′ […] 3′ • Qu-BHQ1 5′ […] 3′ • DNA capture 5′ […] 3′.
The sequence in Fluo-FAM complementary to Qu-BHQ1 is underlined. Fluo-FAM carries a 6-carboxyfluorescein fluorophore at its 3′ end, while Qu-BHQ1 carries a Black Hole quencher group at its 5′ end. The DNA capture oligonucleotide is complementary to the Qu-BHQ1 oligonucleotide, but it bears no modifications. A helicase assay using the dsRNA substrate was performed in 20 mM TrisHCl (pH 8), 70 mM KCl, 2 mM MgCl2, 2 mM dithiothreititol, 12 units RNasin (Promega), 2 mM ATP, 50 nM dsRNA, and 100 nM capture strand in 20 μL of reaction volume. The unwinding reaction was started by adding 60 pmols of DDX3X recombinant protein and carried out at 37 °C for 40 min using a LightCycler 480 (Roche, Basel, Switzerland). The fluorescence intensity was recorded every 30 s. Values of fluorescence signal in the presence or in the absence of inhibitor molecules were analyzed by linear interpolation, and the corresponding slope values were used to determine the apparent unwinding rate.
The IC50 values have been calculated from dose–response curves. Data (in triplicate) were plotted and analyzed by least-squares nonlinear regression, according to the method of Marquardt–Levenberg, with the computer program GraphPad Prism 6.0. Data were fitted to the following equation:Eobs = Emax/(1 + (IC50/[I])^n)(1) where E(obs) is the observed enzymatic activity in the presence of each inhibitor dose [I]; E(max) is the maximal enzymatic activity in the absence of the inhibitor; and n is an exponential term to take into account sigmoidal dose–response curves.
All the compounds were tested for their ability to inhibit the helicase activity of DDX3X using a fluorescence resonance energy transfer (FRET)-based assay, as previously described. Values of fluorescence signal in the presence or in the absence of inhibitor molecules were analyzed by linear interpolation (for details, see Methods 2.3.2).

A further series concerns U251 cells. Kind of series: MTS cytotoxicity assay, U251 cells. The following applies: 72 h. It counts as cell-based. Here is the method: (§1) For CellTiter 96® Aqueous One Solution Cell Proliferation Assay (MTS) (Promega, Madison, WI, USA), cells were seeded at 5 × 10^3 per well in 96-well plates in quadruplicate together a control with no cells to evaluate the background. After 24 h, the culture medium was removed, and fresh medium containing increasing concentrations of chemical compounds was added to cells. […] DMSO was the vehicle used for dilution of the compounds, and its final concentration on cells was less than 0.2%. Medium-only containing wells were included as controls. Cells were incubated with compounds at different concentrations for 72 h, then, 20 µL of CellTiter 96® AQueous One Solution Reagent was added into each well. After 3 h at 37 °C in a humidified, 5% CO2 atmosphere, the absorbance at 492 nm was recorded using an EZREAD400 (Biochrom, Cambridge, United Kingdom) plate reader. The average 490 nm absorbance from the “no cell” control wells was subtracted from all other values to yield background-corrected absorbance. Dose–response curves and CC50 values have been calculated by plotting the absorbance data as a function of inhibitor concentrations and fitting the data by least-squares nonlinear regression, according to the method of Marquardt–Levenberg, with the computer program GraphPad Prism 6.0.
(§2) Cells were incubated with a scalar concentration of DDX3X inhibitors, and after 72 h of treatment, cell viability was assessed by cytotoxicity assay. […] Compounds 4, 6, and BA103 were also evaluated against BJ primary fibroblasts; compound 4 has a cytotoxicity value of 84.7 μM; on the contrary, compounds 6 and BA103 were not toxic up to 200 μM concentration. This further excluded a possible nonspecific cytotoxic effect. […] Due to its interesting profile, compound BA103 was further tested against additional pulmonary (A549), breast (MDA-MB-231), colorectal (HCT-116), osteosarcoma (U2OS), rhabdomyosarcoma (RD18), GBM (DBTRG, U87, and U251) and medulloblastoma (DAOY) cancer cell lines.
(§3) Figure 5 Cytotoxicity of selected compounds. Compounds were assayed on DU-145, PC3, HepG2, Huh-7, HN6, U251, and U87 cell lines. The concentration of the compound, which reduced the number of viable cells by 50% (CC50), was determined by dose–response curve, and the mean CC50 value for each cell line was calculated by triplicate assays (raw data from U87 and U251 cells with dose–response curves used for the calculation of CC50 in Table S1 and Figure S2).
(§4) Table S1: Raw data of optical absorbance at 490 nm from MTS assay in U87 and U251 cells. Tables contain
(§5) means with SD of at least 5 different values that were used for preparation of figure 5.
In general terms: Tetrazolium assays rely on reduction of a dye to a coloured formazan, in cell work by metabolically active cells.

For series [1], the system named is panel of cancer cell lines (Du-145, PC3, HepG2, Huh-7, HN6, U87 and U231). The series is described as follows: Cytotoxicity screen on panel of cancer cell lines. It counts as cell-based. The settings on record: 72 h of treatment. Here is the method:
For CellTiter 96® Aqueous One Solution Cell Proliferation Assay (MTS) (Promega, Madison, WI, USA), cells were seeded at 5 × 10^3 per well in 96-well plates in quadruplicate together a control with no cells to evaluate the background. After 24 h, the culture medium was removed, and fresh medium containing increasing concentrations of chemical compounds was added to cells. The fixed final concentrations were 0.1 μM, 1 μM, 10 μM, and 100 μM. DMSO was the vehicle used for dilution of the compounds, and its final concentration on cells was less than 0.2%. Medium-only containing wells were included as controls. […] After 3 h at 37 °C in a humidified, 5% CO2 atmosphere, the absorbance at 492 nm was recorded using an EZREAD400 (Biochrom, Cambridge, United Kingdom) plate reader. The average 490 nm absorbance from the “no cell” control wells was subtracted from all other values to yield background-corrected absorbance. Dose–response curves and CC50 values have been calculated by plotting the absorbance data as a function of inhibitor concentrations and fitting the data by least-squares nonlinear regression, according to the method of Marquardt–Levenberg, with the computer program GraphPad Prism 6.0.
Cells were incubated with a scalar concentration of DDX3X inhibitors, and after 72 h of treatment, cell viability was assessed by cytotoxicity assay. […]

The next series relates to U87 cells. The series is described as follows: MTS cytotoxicity assay, U87 cells. The class given is cell-based. The following applies: 72 h. The method, then: as §1, §2, §3, §4, §5

T1 sequence (O00571 whole entry): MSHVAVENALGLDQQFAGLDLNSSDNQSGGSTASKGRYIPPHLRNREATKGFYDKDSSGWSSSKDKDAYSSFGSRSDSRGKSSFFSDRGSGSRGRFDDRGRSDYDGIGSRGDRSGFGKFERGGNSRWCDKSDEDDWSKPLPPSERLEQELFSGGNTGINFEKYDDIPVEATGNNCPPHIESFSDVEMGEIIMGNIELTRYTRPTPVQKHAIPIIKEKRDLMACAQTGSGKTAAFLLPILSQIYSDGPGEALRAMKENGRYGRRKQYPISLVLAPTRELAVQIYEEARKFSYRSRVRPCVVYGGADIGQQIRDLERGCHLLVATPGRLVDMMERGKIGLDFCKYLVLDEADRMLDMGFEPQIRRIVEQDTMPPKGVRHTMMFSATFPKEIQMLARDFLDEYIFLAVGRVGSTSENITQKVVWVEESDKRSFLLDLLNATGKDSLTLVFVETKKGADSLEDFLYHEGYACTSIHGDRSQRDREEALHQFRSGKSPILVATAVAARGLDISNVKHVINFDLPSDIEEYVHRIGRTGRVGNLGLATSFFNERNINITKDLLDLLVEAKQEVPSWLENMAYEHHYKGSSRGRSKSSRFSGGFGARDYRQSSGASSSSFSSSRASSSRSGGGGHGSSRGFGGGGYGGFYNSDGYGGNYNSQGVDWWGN

Broadly, the IC50 is the point on the concentration scale where inhibition reaches its midpoint. Turning to “1-(4-(4-Butyl-1H-1,2,3-triazol-1-yl)phenyl)-3-(4-methylpyridin-3-yl)urea [Compound 14]”, at DDX3X helicase activity, the IC50 stood at 2 ± 0.3 µM.
On the same count and under the same terms, then “1-(4-(4-Isopentyl-1H-1,2,3-triazol-1-yl)phenyl)-3-(4-methylpyridin-3-yl)urea [Compound 13]”, with 1.5 ± 0.3 µM.
With `CCCCc1cc(-c2ccc(NC(=O)Nc3ccccc3C(F)(F)F)cc2)no1` [Compound 2, 1-(4-(5-Butylisoxazol-3-yl)phenyl)-3-(2-(trifluoromethyl)phenyl)urea], at DDX3X helicase activity (during the enzymatic assay), the “solubility in assay medium” value is reported as “precipitated from medium”.
`CCCCn1nnc(-c2ccc(NC(=O)Nc3ccccc3C)cc2)n1` [Compound 5, 1-(4-(2-Butyl-2H-tetrazol-5-yl)phenyl)-3-(o-tolyl)urea]: the “times less active than hit compound 1 (loss of activity)” value on DDX3X helicase activity (DDX3X helicase inhibition relative to compound 1) was 16 times.
With `CCCCc1nnc(-c2ccc(NC(=O)Nc3ccccc3C(F)(F)F)cc2)s1` [Compound 8, 1-(4-(5-Butyl-1,3,4-thiadiazol-2-yl)phenyl)-3-(2-(trifluoromethyl)phenyl)urea], the IC50 at DDX3X helicase activity is 50 ± 7 µM. Further, the “mean absorbance at 490 nm (MTS)” value in the series with U251 cells (U251, 0,01 uM) is recorded as 2,363; in the series on U251 cells (U251, 0,1 uM) it was 2,282; in the series on U251 cells (U251, 1 uM), 2,177; in the series with U251 cells (U251, 10 uM) it was 1,806; in the series on U251 cells (U251, 100 uM) it was 0,786; with U87 cells (U87, 0,01 uM) it was 2,267. Moreover, the “mean absorbance at 490 nm (MTS)” value in the series on U87 cells (U87, 0,1 uM) is listed as 1,994; in the series on U87 cells (U87, 1 uM) it was 1,965; in the series with U87 cells (U87, 10 uM) it was 1,945; in the series on U87 cells (U87, 100 uM), 1,054. Moreover, the “growth inhibition in all the cell lines tested” value in series [1] was “poorly effective against all the cell lines tested”.
Consider `CC(C)CCc1cn(-c2ccc(NC(=O)Nc3ccccc3C(F)(F)F)cn2)nn1` [Compound 9, 1-(6-(4-Isopentyl-1H-1,2,3-triazol-1-yl)pyridin-3-yl)-3-(2-(trifluoromethyl)phenyl)urea], for which, on DDX3X helicase activity, the IC50 is 1.1 ± 0.2 µM.

These data come from paper PMC8582824, “Targeting DDX3X Helicase Activity with BA103 Shows Promising Therapeutic Effects in Preclinical Glioblastoma Models” (Cancers, 2021).
